Data published in PMC11571207, “Stereorandomized Oncocins with Preserved Ribosome Binding and Antibacterial Activity” (Journal of Medicinal Chemistry, 2024).
Where two headings read alike, the source gives them in different places.

Columns and labels:
[1] = test system: P. aeruginosa PA14 4.13 (phoQ); details: for MIC P. aeruginosa PA14 4.13: supplement CSV
K. pneumoniae NCTC 418 = assay: microbe, parasite or virus in culture; details: for MIC K. pneumoniae NCTC418: supplement CSV
Procedure, shortened: (§1)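 Read-out was visible growth after MTT addition, the MIC being the lowest inhibitory peptide concentration. Bacteria grown to log phase in LB were exposed in MH medium to peptide from 64 μg/mL in twofold dilutions for 15-18h at 37°C.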

S. aureus COL (MRSA) = assay: microbe, parasite or virus in culture; details: for MIC S. aureus COL (MRSA): supplement CSV
Procedure, shortened: as §1

A. baumannii ATCC19606 = assay: microbe, parasite or virus in culture; details: for MIC A. baumannii ATCC19606: supplement CSV
Procedure, shortened: as §1

E. coli W3110 = assay: microbe, parasite or virus in culture; details: for MIC E. coli W3110: supplement CSV
Procedure, shortened: as §1

P. aeruginosa PAO1 = assay: microbe, parasite or virus in culture; details: for MIC P. aeruginosa PAO1: supplement CSV
Procedure, shortened: as §1

[2] = test system: P. aeruginosa PA14 4.18 (pmrB); details: for MIC P. aeruginosa PA14 4.18: supplement CSV
P. aeruginosa ZEM9A = assay: microbe, parasite or virus in culture; details: for MIC P. aeruginosa ZEM9A: supplement CSV
Procedure, shortened: (§2)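 Minimal inhibitory concentrations come from broth microdilution in MH medium, with a top peptide concentration of 64 μg/mL halved serially.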

P. aeruginosa ZEM-1A = assay: microbe, parasite or virus in culture; details: for MIC P. aeruginosa ZEM-1A: supplement CSV
Procedure, shortened: as §2

P. aeruginosa PA14 = assay: microbe, parasite or virus in culture; details: for MIC P. aeruginosa PA14: supplement CSV
Procedure, shortened: as §2

[3] = test system: P. aeruginosa PA14 2P4 (pmrB); assay: microbe, parasite or virus in culture; details: for MIC P. aeruginosa PA14 2P4: supplement CSV
Procedure, shortened: as §2

E. cloacae = assay: microbe, parasite or virus in culture
Procedure, shortened: as §2

K. pneumoniae OXA-48 = assay: microbe, parasite or virus in culture; details: for MIC K. pneumoniae OXA-48: supplement CSV
Procedure, shortened: as §2

[4] = polymyxin B resistant strain, 12.5% MHB pH 7.4, 16–20 h at 37 °C
[5] = polymyxin B resistant strain, full MHB pH 7.4, 16–20 h at 37 °C

For polymyxin B [PMB, reference compound], the “MIC P. aeruginosa PA14 4.13 (phoQ), 12.5% MHB” value [1, 4] was 2/2 μg/mL, the “MIC P. aeruginosa PA14 4.13 (phoQ), full MHB” value [1, 5] was 2/2 μg/mL and the “MIC P. aeruginosa PA14 4.13” value ([1]; 12.5% MH pH 7.4) was 2 µg/mL. For the same substance, the “MIC P. aeruginosa PA14 4.13” value ([1]; full MH pH 7.4) was 2 µg/mL, the “MIC K. pneumoniae, 12.5% MHB” value (K. pneumoniae NCTC 418; K. pneumoniae NCTC 418, 12.5% Müller–Hinton medium, 16–20 h at 37 °C) was 1 µg/mL and the “MIC K. pneumoniae, Full MHB” value (K. pneumoniae NCTC 418; K. pneumoniae NCTC 418, full Müller–Hinton medium, 16–20 h at 37 °C) was 0.5 µg/mL. For the same substance, the “MIC K. pneumoniae NCTC418” value (K. pneumoniae NCTC 418; 12.5% MH pH 7.4) was 1 µg/mL, the “MIC K. pneumoniae NCTC418” value (K. pneumoniae NCTC 418; full MH pH 7.4) was 0.5 µg/mL and the “MIC S. aureus, 12.5% MHB” value (S. aureus COL (MRSA); S. aureus COL (MRSA), 12.5% Müller–Hinton medium, 16–20 h at 37 °C) was >16 / 16 μg/mL. For the same substance, the “MIC S. aureus, Full MHB” value (S. aureus COL (MRSA); S. aureus COL (MRSA), full Müller–Hinton medium, 16–20 h at 37 °C) was >16 / 16 μg/mL, the “MIC S. aureus COL (MRSA)” value (S. aureus COL (MRSA); 12.5% MH pH 7.4) was 16 µg/mL and the “MIC S. aureus COL (MRSA)” value (S. aureus COL (MRSA); full MH pH 7.4) was greater than 16 µg/mL. For the same substance, the “MIC A. baumannii, 12.5% MHB” value (A. baumannii ATCC19606; A. baumannii ATCC19606, 12.5% Müller–Hinton medium, 16–20 h at 37 °C) was 0.5 µg/mL, the “MIC A. baumannii, Full MHB” value (A. baumannii ATCC19606; A. baumannii ATCC19606, full Müller–Hinton medium, 16–20 h at 37 °C) was 0.25 µg/mL and the “MIC A. baumannii ATCC19606” value (A. baumannii ATCC19606; 12.5% MH pH 7.4) was 0.5 µg/mL. The “MIC A. baumannii ATCC19606” value (A. baumannii ATCC19606; full MH pH 7.4) was 0.25 µg/mL, the “MIC E. coli, 12.5% MHB” value (E. coli W3110; E. coli W3110, 12.5% Müller–Hinton medium, 16–20 h at 37 °C, broth microdilution) was 0.5 µg/mL and the “MIC E. coli, Full MHB” value (E. coli W3110; E. coli W3110, full Müller–Hinton medium, 16–20 h at 37 °C, broth microdilution) was 0.25 µg/mL. The “MIC E. coli W3110” value (E. coli W3110; 12.5% MH pH 7.4) was 0.5 µg/mL, the “MIC E. coli W3110” value (E. coli W3110; full MH pH 7.4) was 0.25 µg/mL and the “MIC P. aeruginosa, 12.5% MHB” value (P. aeruginosa PAO1; P. aeruginosa PAO1, 12.5% Müller–Hinton medium, 16–20 h at 37 °C) was 1 µg/mL. For the same substance, the “MIC P. aeruginosa, Full MHB” value (P. aeruginosa PAO1; P. aeruginosa PAO1, full Müller–Hinton medium, 16–20 h at 37 °C) was 0.5 µg/mL, the “MIC P. aeruginosa PAO1” value (P. aeruginosa PAO1; 12.5% MH pH 7.4) was 1 µg/mL and the “MIC P. aeruginosa PAO1” value (P. aeruginosa PAO1; full MH pH 7.4) was 0.5 µg/mL. The “MIC P. aeruginosa PA14 4.18 (pmrB), 12.5% MHB” value [2, 4] was 1 µg/mL, the “MIC P. aeruginosa PA14 4.18 (pmrB), full MHB” value [2, 5] was 2 µg/mL and the “MIC P. aeruginosa PA14 4.18” value ([2]; 12.5% MH pH 7.4) was 1 µg/mL. For the same substance, the “MIC P. aeruginosa PA14 4.18” value ([2]; full MH pH 7.4) was 2 µg/mL, the “MIC P. aeruginosa ZEM9A, 12.5% MHB” value (P. aeruginosa ZEM9A; clinical isolate, 12.5% MHB pH 7.4, 16–20 h at 37 °C) was 2 µg/mL and the “MIC P. aeruginosa ZEM9A, full MHB” value (P. aeruginosa ZEM9A; clinical isolate, full MHB pH 7.4, 16–20 h at 37 °C) was greater than 64 µg/mL. For the same substance, the “MIC P. aeruginosa ZEM9A” value (P. aeruginosa ZEM9A; 12.5% MH pH 7.4) was 2 µg/mL, the “MIC P. aeruginosa ZEM9A” value (P. aeruginosa ZEM9A; full MH pH 7.4) was greater than 64 µg/mL and the “MIC P. aeruginosa ZEM-1A, 12.5% MHB” value (P. aeruginosa ZEM-1A; clinical isolate, 12.5% MHB pH 7.4, 16–20 h at 37 °C, cells marked c: single measurement (in duplicates)) was 8 µg/mL. For the same substance, the “MIC P. aeruginosa ZEM-1A, full MHB” value (P. aeruginosa ZEM-1A; clinical isolate, full MHB pH 7.4, 16–20 h at 37 °C, cells marked c: single measurement (in duplicates)) was 16 µg/mL, the “MIC P. aeruginosa ZEM-1A” value (P. aeruginosa ZEM-1A; 12.5% MH pH 7.4) was 8 µg/mL and the “MIC P. aeruginosa ZEM-1A” value (P. aeruginosa ZEM-1A; full MH pH 7.4) was 16 µg/mL. The “MIC P. aeruginosa PA14, 12.5% MHB” value (P. aeruginosa PA14; 12.5% MHB pH 7.4, 16–20 h at 37 °C, two different duplicate MIC determinations) was 1 µg/mL, the “MIC P. aeruginosa PA14, full MHB” value (P. aeruginosa PA14; full MHB pH 7.4, 16–20 h at 37 °C, two different duplicate MIC determinations) was less than 0.5 µg/mL and the “MIC P. aeruginosa PA14” value (P. aeruginosa PA14; 12.5% MH pH 7.4) was 1 µg/mL. For the same substance, the “MIC P. aeruginosa PA14” value (P. aeruginosa PA14; full MH pH 7.4) was less than 0.5 µg/mL, the “MIC P. aeruginosa PA14 2P4 (pmrB), 12.5% MHB” value [3, 4] was 1 µg/mL and the “MIC P. aeruginosa PA14 2P4 (pmrB), full MHB” value [3, 5] was 4 µg/mL. The “MIC P. aeruginosa PA14 2P4” value ([3]; 12.5% MH pH 7.4) was 1 µg/mL, the “MIC P. aeruginosa PA14 2P4” value ([3]; full MH pH 7.4) was 4 µg/mL and the “MIC E. cloacae, 12.5% MHB” value (E. cloacae; 12.5% MHB pH 7.4, 16–20 h at 37 °C) was 1 to 2 µg/mL. The “MIC E. cloacae, full MHB” value (E. cloacae; full MHB pH 7.4, 16–20 h at 37 °C) was 2 µg/mL, the “MIC E. cloacae” value (E. cloacae; supplement CSV, 12.5% MH pH 7.4) was 1 to 2 µg/mL and the “MIC K. pneumoniae OXA-48, 12.5% MHB” value (K. pneumoniae OXA-48; carbapenem-resistant, 12.5% MHB pH 7.4, 16–20 h at 37 °C) was 1–2/1–2 μg/mL. For the same substance, the “MIC K. pneumoniae OXA-48, full MHB” value (K. pneumoniae OXA-48; carbapenem-resistant, full MHB pH 7.4, 16–20 h at 37 °C) was 1–2/1–2 μg/mL, the “MIC K. pneumoniae OXA-48” value (K. pneumoniae OXA-48; 12.5% MH pH 7.4) was 1 to 2 µg/mL and the “MIC K. pneumoniae OXA-48” value (K. pneumoniae OXA-48; full MH pH 7.4) was 1 to 2 µg/mL.
